Target: Olfr743 (Mus musculus, UniProt L7N1Y2)
Assay: cell-based cAMP assay (HTRF), HEK293T co-transfected with Gαolf
Conditions: 300 μM 2-acetonaphthone
Description: The activity of candidate mouse receptors Olfr740 (SEQ ID NO: 1 and SEQ ID NO: 2), Olfr743 (SEQ ID NO: 5 and SEQ ID NO: 6), and Olfr746 (SEQ ID NO: 37 and SEQ ID NO: 38) to both indole and skatole malodors were confirmed in cell-based cAMP assays. In FIGS. 5A and 5B, FLAG Rho-tagged (SEQ ID 18) Olfr743 (SEQ ID NO: 6) and Olfr740 (SEQ ID NO: 2) cDNA sequences were co-transfected with Gαolf (SEQ ID NO: 21) and exposed to increasing concentrations of indole (left) or skatole (right). FIGS. 5C and 5D are repeat experiments showing similar activity of Olfr740 (SEQ ID NO: 2) with Olfr743 (SEQ ID NO: 6) with indole and skatole. In FIG. 5E, the FLAG Rho-tagged (SEQ ID 18) Olfr746 (SEQ ID NO: 38) cDNA sequence was co-transfected with Gαolf (SEQ ID NO: 21) and exposed to increasing concentrations of indole or skatole. Odorant-induced activity was detected by measuring cAMP levels in the cytosol using the HTRF approach (CisBio kit). […] Co-transfection of HEK cells with Gαolf (SEQ ID NO: 21) alone (no receptor) were used as controls for non-specific activity (control). Activity is defined as the baseline corrected HTRF ratios normalized to the highest signal in the experiment. […] All three receptors show specific dose dependent activity to the malodor compounds and, as such, validate the process for identifying receptors for these compounds. Mouse receptors Olfr740 (SEQ ID NO: 1 and SEQ ID NO: 2) and Olfr743 (SEQ ID NO: 5 and SEQ ID NO: 6) were identified from isolated olfactory neurons that responded to both indole and skatole. Mouse receptor Olfr746 (SEQ ID NO: 37 and SEQ ID NO: 38) was identified in silico by database mining using Olfr740 (SEQ ID NO: 2) and Olfr743 (SEQ ID NO: 6) as query sequences. The receptors are modified at their N-terminus with the FLAG tag and the first 20 amino acids of the bovine rhodopsin receptor (SEQ ID 18), transiently expressed in HEK 293T cells, and stimulated separately with indole and skatole to confirm their identity as bona fide indole/skatole receptors. Co-expression of the human G alpha subunit Gαolf (SEQ ID NO: 21) activates the Gs transduction pathway that leads to an internal cAMP increase upon binding to the appropriate ligand.
Once identified using the procedure outlined herein, the resulting malodor receptor cell lines can be used to screen chemical libraries for compounds that modulate their activity and possibly human perception. This experiment was performed under the same conditions as in Example 4. Cells transfected with Rho-tagged (SEQ ID NO: 18) Olfr743 (SEQ ID NO: 6) were exposed to increasing concentrations of indole in the presence or absence of 300 μM 2-actetonaphthone. […] In the presence of the antagonist compound, a rightward shift of in the dose-response curve is observed resulting in a 4 fold increase in the EC50 to indole. Activity is defined as the baseline corrected HTRF ratios normalized to the highest signal in the experiment.

Chain of Olfr743 (P38405 2-381): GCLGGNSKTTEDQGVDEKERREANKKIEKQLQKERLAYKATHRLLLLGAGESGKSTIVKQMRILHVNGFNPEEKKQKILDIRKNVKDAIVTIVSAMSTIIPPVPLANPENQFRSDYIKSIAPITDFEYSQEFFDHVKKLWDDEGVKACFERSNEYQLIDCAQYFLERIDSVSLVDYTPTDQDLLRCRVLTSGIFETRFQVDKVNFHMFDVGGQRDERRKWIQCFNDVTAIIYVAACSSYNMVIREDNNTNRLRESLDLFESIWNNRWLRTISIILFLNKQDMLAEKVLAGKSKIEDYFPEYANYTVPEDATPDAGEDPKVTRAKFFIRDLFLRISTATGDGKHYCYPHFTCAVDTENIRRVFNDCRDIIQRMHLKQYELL
Chain of Olfr743 (L7N1Y2 entry or part of it): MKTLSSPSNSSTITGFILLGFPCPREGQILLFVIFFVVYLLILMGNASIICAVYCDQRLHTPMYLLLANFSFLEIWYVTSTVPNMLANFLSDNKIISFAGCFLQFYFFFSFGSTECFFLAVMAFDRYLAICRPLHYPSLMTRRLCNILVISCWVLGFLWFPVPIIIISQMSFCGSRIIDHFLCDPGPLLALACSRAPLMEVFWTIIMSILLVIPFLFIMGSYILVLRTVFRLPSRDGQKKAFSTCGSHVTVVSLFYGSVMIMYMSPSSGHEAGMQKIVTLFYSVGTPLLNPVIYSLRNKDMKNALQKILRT

In the case of `CC(=O)c1ccc2ccccc2c1` [2-acetonaphthone], the “inhibition of Olfr743 activity to indole” value is reported as “inhibits the activity” and the “increase in the EC50 to indole” value (rightward shift of dose-response curve) is reported as 4 fold.
